Test results taken from US9060997B2, “Antifolate compounds for the treatment of melanoma” (UNIVERSIDAD DE MURCIA, priority 2007, dated 2015).

How the values were obtained:
[1] = system: γ-glutamylcysteine synthetase (GCS) mRNA; assay: GCS mRNA determination in SkMel-28; format: cell-based, human; settings: SkMel-28 treated with TMECG
Description: Histograms compare the estimated relative levels of the mRNA with respect to that of β-actin. Values represent the number of copies of mRNA per each 1×10^6 copies of β-actin.
(§1) cDNA samples (1 μL) were used for real-time PCR in a total volume of 20 μL using SYBR Green Reagent (Applied Biosystems) and specific primers on a 7500 Real Time PCR System of Applied Biosystems. The PCR amplification cycles included denaturation 95° C., 15 min; to activate HotStar Taq DNA polymerase and to minimize primer-dimer contribution), and amplification [over 40-50 cycles including denaturation (94° C.; 30 s), annealing (55° C.; 30 s), and extension (72° C.; 1 min)]. All PCR reactions were performed in triplicate and from at least two independent experiments. Non-RT control and negative control samples (without template) were processed in the same manner. The specificity of the amplification was verified by melting curve analysis for all samples, and occasionally by agarosa gel electrophoresis. Amplification of target gene sequences were compared against serial dilutions of know quantities of their purified cDNA fragments, and normalized to the abundance of the house-keeping gene β-actin.

SkMel-28 cells = assay: MTT cell proliferation assay, SkMel-28; format: cell-based, human
Description: Four human cancer cells lines (SkMel-28, MCF7, H1264 and Caco-2) were obtained from the American Type Tissue Culture Collection (ATCC) and were maintained in appropriate culture mediums supplemented with 10% fetal calf serum (FCS) and antibiotics, under standard tissue culture conditions (e.g. modified Eagle's medium (MEM) containing 1 mM sodium pyruvate and 10% fetal bovine serum (FES) under 5% CO2/95% air atmosphere.). Cell injury was evaluated by a colorimetric assay for mitochondrial function using the 3-(4,5-dimethylthiazolyl-2)-2,5-diphenyltetrazolium bromide (MTT) cell proliferation assay. For this assay cells were plated in a 96-well plate at a density of 1000 cells/well and grown until they reached 50-60% confluence. Human epidermal melanocytes (HeM) were supplied by Gentaur and were cultured in HAM-F10 medium supplemented with 10% FCS, antibiotics and the human melanocyte growth supplement (Gentaur).
Cell injury was evaluated by a colorimetric assay for mitochondrial function using the 3-(4,5-dimethylthiazolyl-2)-2,5-diphenyltetrazolium bromide (MTT) cell proliferation assay. For this assay cells were plated in a 96-well plate at a density of 1000 cells/well and grown until they reached 30% confluence. Co-treatments of SkMel-28 cells with TMECG and other reagents were carried out by supplementing medium cultures with S-adenosylmethionine (SAM), adenosine or dipyridamole (all from Sigma).

B16 melanoma = assay: Mouse tumor model, B16 melanoma, topical TMECG cream; format: in vivo
Description: Female C57/B16 mice 6-8 weeks old were obtained from the Animal Research Service (University of Murcia, Spain) and were housed in our animal facilities. All animal work was performed in accordance with the government guidelines. The B16 melanoma cell line (ATCC) was culture in RPMI 1640 medium under standard tissue culture conditions. Mice were shaved on the back using a long-hair cutter and 7.5×10^5 B16 melanoma cells resuspended in 25 μl sterile PBS were injected intradermally on the back. Animals with tumors more than 8 mm in diameter on day 8 or nonvisible tumor growth by day 12 were excluded. Groups consisting of 20 mice per group were differently treated starting at day 8 after tumor cell injection. For TMECG treatments this compound was uniformly mixed in a cosmetic base cream (Thae, Murcia, Spain). Topical treatment of TMECG was given every day at a dose of ≈1 mg/cm2 skin area. Control mice (non-TMECG treated) were topically treated with the some amount of cream alone. Tumor growth and body weight were monitored every second day. A postmortem with histological examination of the lung, liver and brain was performed in all animals. Tissues were fixed in 10% formaldehyde, dehydrated and embedded in paraffin wax. Sections (4 μm) were stained with eosin and hematoxylin. Analyses of gluconic acid content in lungs were carried out as described elsewhere (Pradeep and Kuttan, 2002).

DHFR mRNA and protein = assay: DHFR mRNA (real-time PCR) and protein in SkMel-28; format: cell-based, human; settings: SkMel-28, 50 μM
Description: Data were obtained by real time PCR and compared with the relative expression of DHFR in HeM cells (zero relative gene expression). Zero time represents the level of DHFR in untreated SkMel-28 cells.
as §1, with “The specificity of the amplification was verified by melting curve analysis for all samples, and occasionally by agarosa gel electrophoresis.” left out
Protein lysates were prepared from specified cells, separated by SDS-polyacrylamide gel electrophoresis (PAGE), transferred to nitrocellulose membranes, and analyzed by immunoblotting. […] Bound antibodies were detected by chemiluminiscence (ECL Plus, GE Healthcare). […]

B16 melanoma cells = assay: Metastasis model, B16 cells injected into tail vein; format: in vivo, mouse; settings: TMECG 20 mg/Kg/d plus Dipyridamol 10 mg/Kg/d intraperitoneal, 30 days, female mice
Description: B16 melanoma cells were injected into the tail vein, allowing microtumours to develop (1 week), then, the animal were treated for 21 days with […]) plus Dipyridamol (10 mg/Kg/d) by intraperitoneal injection. The animals were sacrifice and lungs and liver analyzed for tumor growth. We have now increased the number of treated and control animals (treated 21 female mice compared with 21 control (untreated) females) and the time of treatment (30 days). […] 31).

[2] = system: Reduced folate carrier (RFC) mRNA; assay: Real-time PCR of RFC expression in SkMel-28; format: cell-based, human; settings: 50 μM, after 24 h of treatment
Description: Data were obtained by real time PCR and compared with the relative expression of RFC in normal human skin (zero relative gene expression). Zero time represents the level of RFC in untreated SkMel-28 cells.
PolyA+ mRNA from human adult skin was purchased from Invitrogen. SkMel-28 and HEM polyA+ mRNA was extracted from 5×10^6 cells using the Illustra Quick Prep Micro mRNA purification kit (GE Healthcare). mRNA (200 ng) was used to synthesize cDNA using SuperScript First-Strand Synthesis System (Invitrogen). PCR amplification of 2 μL of the cDNA strand generated was carried out in a total volume of 50 μL using an Eppendorf Mastercycler Thermal Cycler. Samples were amplified by 40 cycles at 95° C. (1 min), 62° C. (1 min) and 72° C. (1 min). The amplified PCR products were subjected to electrophoresis in 3% agarose gel and stained with ethidium bromide.
cDNA samples (1 μL) were used for real-time PCR in a total volume of 20 μL using SYBR Green Reagent (Applied Biosystems) and specific primers on a 7500 Real Time PCR System of Applied Biosystems. […] Amplification of target gene sequences were compared against serial dilutions of know quantities of their purified cDNA fragments, and normalized to the abundance of the house-keeping gene β-actin.

[3] = treated for 21 days, post-mortem

## COc1cc(C(=O)O[C@@H]2Cc3c(O)cc(O)cc3O[C@@H]2c2ccc(O)c(O)c2)cc(OC)c1OC [TMECG, 3-O-(3,4,5-trimethoxybenzoyl)-(−)-epicatechin]
[1]
  GCS mRNA, mean value: 26300 copies per million of copies of β-actin mRNA
SkMel-28 cells; 100 μM leucovorin, MTX 1 μM or TMECG 50 μM, 3 days
  effect of leucovorin co-treatment on growth inhibition: did not
SkMel-28 cells; Homo sapiens, SK-MEL-28, 120 h, 50 μM, five days of treatment, read-out: growth of SkMel-28 inhibited
  inhibition at 50 µM: > 60%
SkMel-28 cells; Homo sapiens, SK-MEL-28, 144 h, SkMel-28, 6 days of treatment, read-out: IC50 (at 6 days)
  IC50: 2900 nM
SkMel-28 cells; SkMel-28
  effect of natural and synthetic catechins on SkMel-28 growth: highly inhibited
SkMel-28 cells; SkMel-28, 50 μM, 7 days
  DNA fragmentation (apoptosis): visible after treatment
SkMel-28 cells; sulfasalazine 0.5 mM, MTX 0.2 μM or TMECG 10 μM, 3 days
  effect of sulfasalazine (RFC inhibitor) on antiproliferative action: enhancing TMECG antiproliferative activity
B16 melanoma; topical, ≈1 mg/cm2 skin area every day
  tumor growth: significantly reduced
B16 melanoma; topical, ≈1 mg/cm2 skin area every day, female C57/B16 mice
  survival time: longer survival time
B16 melanoma; [3]
  liver and brain metastasis: no metastasis in these organs was detected
  lung metastasis: drastically reduced lung metastasis
DHFR mRNA and protein
  DHFR mRNA and protein level: reduced DHFR mRNA and protein to normal levels
B16 melanoma cells
  lung metastasis: reduction on lung metastasis
[2]
  reduction in RFC expression: more than 80%
